According to PMC8962522, “Direct interaction of TrkA/CD44v3 is essential for NGF-promoted aggressiveness of breast cancer cells” (Journal of Experimental & Clinical Cancer Research : CR, 2022):

Test system: CD44v3 in MDA-MB-231 cells
Test: Flow cytometry, plasma membrane CD44v3
Type: cell-based
Conditions: MDA-MB-231, flow cytometry
Source text: The CD44v3- and CD44v6-containing isoforms expressing respectively exon 8 and 11(Fig. 1A) can interact with growth factor receptors. Using COS-7 cells with low CD44 and TrkA expression (Supplementary Fig. 1A-D), we differentially expressed TrkA and CD44s or a CD44 variant, either CD44v3 or CD44v6 (Fig. 1B, supplementary Fig. 2). […] Additionally, we evaluated the expression of TrkA and CD44v3 at the membrane level or in cells by immunofluorescence in MDA-MB-231 cells.
Supplementary file 13046_2022_2314_MOESM3_ESM.pdf: Additional file 3: Supplementary Figure 1. Validation of the ectopic expression of CD44 and/or TrkA in COS-7 cells. The expression of all CD44 isoforms (A), CD44 variant 3 (B), CD44 variant 6 (C) and TrkA ([…]; D) was evaluated by RT–qPCR (normalized using PUM-1). No expression of CD44, CD44 variants [3 or 6] or TrkA was detected in COS-7 cells (A-D) compared with that in cells transfected with the expression plasmid carrying each protein. […] Quantification of the PLA results was performed using ImageJ software (30 randomly chosen fields per condition of three different experiments). […] CD44v3 and CD44v6 levels at the plasma membrane were assessed by flow cytometry (A-D). The plasma membrane and total TrkA and CD44v3 levels were also quantified by confocal microscopy (E-H). […] The CD44v3/NGF interaction was evaluated using microscale thermophoresis (MST). […]

## NGF: recombinant human β-NGF (Alomone Labs, Israel)
CD44v3-APC, histogram with No stim., NGF (5 min), NGF (30 min)
  increase of plasma membrane CD44v3: 33%
NGF stimulation
  plasma membrane level of CD44v3 (in words): increased the plasma membrane level of CD44v3
